Laboratory results taken from patent publication US3981868A.
In brackets after ≈: the same amount, converted by molar mass.

Legend:
[1] = system: basal gastric acid secretion; assay: inhibition of basal gastric acid secretion (acute gastric fistula rat); type: in vivo, Female Sprague-Dawley rats; settings: 10 mg./kg. intraduodenal
Procedure: Inhibition of basal gastric acid secretion was determined in the acute gastric fistula rat as follows. Female Sprague-Dawley rats (Charles River Laboratories) weighing 140-160 grams are fasted in individual cages for 18-24 hours. The rats are then lightly anesthetized with ether and their front teeth extracted to avoid destruction of the plastic cannula. A midline incision is then made and the stomach and duodenum exposed. A flanged polyvinyl tube is inserted into the fundic portion of the stomach and secured with a purse string suture line using 4-0 Mersilene. The rat is then dosed by injection of the compound into the duodenum (1.0 ml. per 100 grams body weight). After dosing, the abdominal wall and skin are closed using metal wound clips. The rat is replaced in a cage containing a longitudinal slit to allow the polyvinyl tube to hang freely. An 8 ml. plastic collecting tube is attached to the flanged cannula and hangs freely below the cage. The first 30 minute sample is discarded designating this time as zero. The collecting tube is attached again and samples removed at the end of 60 and 120 minutes. The hourly samples are then transferred to a 15 ml. centrifuge tube and centrifuged for 5-10 minutes. Total and sediment volume are then recorded with the supernatant volume being used as volume of secretion. A 1 ml. or less aliquot is then removed and placed in a 50 ml. beaker containing 10 ml. of distilled water. This sample is then titrated using 0.01N NaOH to pH 7.0 using a Beckman zeromatic pH meter. Volume, titratable acidity (meq/L) and total acid output (μ eq/hour) are recorded. Percent inhibition is determined by comparison with the appropriate control. Groups of three rats were used. All compounds are administered in vehicle (0.5% methocel, 0.4% Tween 80, saline) at a constant volume of 1 ml./100 gram rat. Samples were sonicated with care to prevent overheating.

diastolic blood pressure = assay: hypotensive activity in anesthetized rats (minimal dose lowering diastolic blood pressure about 10 mm.); type: in vivo, Male Wistar strain rats; settings: Rattus norvegicus; intravenous; dose producing a decrease of about 10 mm. in diastolic blood pressure
Procedure: This procedure is a modification of the technique described by Pike et al., Prostaglandins, Nobel Symposium 2, Stockholm, June, 1966; p. 165.
Male Wistar strain rats (Royal Hart Farms) averaging approximately 250 grams in weight were fastened to rat boards in a supine position by means of canvas vests and limb ties. The femoral area was infiltrated subcutaneously with lidocaine and the iliac artery and vein were exposed and cannulated. Arterial blood pressure (systolic/diastolic) was recorded using a Statham P23 Db pressure transducer-Offner dynograph system. To obtain a stable blood pressure, the animals were anesthetized before use with pentobarbital, 30 mg./kg. of body weight intravenously, and also were given hexamethonium bitartrate, 2 mg./kg., of body weight intravenously. The test compounds were prepared by ultrasonic dispersion in a saline-Tween 80 vehicle. A constant intravenous dose volume of 0.5 ml. was administered and test doses ranged from 0.1 to 10.0 mg./kg. of body weight. Increasing or decreasing doses were selected depending on the dose response obtained. In Table I below are set forth the minimal doses required to produce a decrease of about 10 mm. in diastolic blood pressure for typical compounds of the present invention.

[2] = system: Streptococcus pyogenes C 203; assay: agar-dilution streak-plate antibacterial assay (8); type: cell-based; settings: C203, read-out: Minimal inhibitory conc.
Procedure: The novel compounds of the present invention are also useful as antimicrobial agents. […] In this assay, the compounds to be tested are made up to contain 2.5 mg. of test compound per milliliter of solution. Observing sterile techniques, two-fold serial dilutions are made of each test solution. One milliliter of each of the original solutions and of each of the serial dilutions is then added to 9 ml. of warm sterile nutrient agar capable of supporting growth of the bacterial test cultures. A second set of agar dilutions is prepared identical to the first except that the nutrient agar is designed to support the growth of the fungal test cultures. […] The test bacteria and yeast-like fungi are prepared for use by growing in broth overnight. The spores of the filamentous fungi are harvested from mature agar slant cultures and are suspended in sterile physiological saline solution. A loopful of each of the resulting live suspensions is then, still employing sterile techniques, streaked upon the surfaces of each of the agar plates and the resulting streaked plates are then incubated. After an appropriate period of time, each of the streaks on each of the plates is inspected visually and the extent, if any, of bacterial or fungal growth is noted. The minimal inhibitory concentration (expressed in micrograms per milliliter) is defined as the concentration of test compound causing complete inhibition of growth of any particular organism. In a representative operation, and merely by way of illustration, the minimal inhibitory concentration of typical compounds of the present invention against a variety of test organisms as determined in the above-described assay are set forth in Tables II and III below: […]

gerbil ascending colon = assay: contraction of gerbil colon by dl-PGE1; settings: final concentration of 200 ng./ml.; preliminary tests

Row | MIC [2] | SMILES | % Inhibition after 120 minutes, Total Acid Output [1] | % Inhibition after 120 minutes, Total Acidity [1] | minimal effective dose (diastolic blood pressure) | muscle contraction (gerbil ascending colon)
1 |  | CCCCCC/C=C/[C@H]1CCC(=O)[C@@H]1CCCCCCC(=O)N(C(=O)Nc1ccc(N(C)C)cc1)c1ccc(N(C)C)cc1 (relative stereo) [4,4'-bis(dimethylamino)-N-{7-[trans-2-(1-octenyl)-5-oxocyclopentyl]-heptanoyl}carbanilide] | 72% | 60% |  | 
2 | 5 µg/mL (≈ 12.5 µM) | CCCCCC/C=C/[C@H]1CCC(=O)[C@@H]1CCCCCCC(=O)Nc1cccnc1 (relative stereo) [N-(pyridyl-3)-9-oxo-13-trans-prostenamide] | 54% | 30% | 2 to 8 mg/kg | 
3 |  | CCCCC[C@H](O)/C=C/[C@H]1[C@H](O)CC(=O)[C@@H]1CCCCCCC(=O)O (relative stereo) [dl-PGE1, prostaglandin-E1] |  |  |  | maximal muscle contraction
